Target: T1, human 5-HT2C receptor (Homo sapiens, UniProt P28335)
T1 construct: host or cells: CHO cells, stably expressing
T1 sequence (P28335 33-458): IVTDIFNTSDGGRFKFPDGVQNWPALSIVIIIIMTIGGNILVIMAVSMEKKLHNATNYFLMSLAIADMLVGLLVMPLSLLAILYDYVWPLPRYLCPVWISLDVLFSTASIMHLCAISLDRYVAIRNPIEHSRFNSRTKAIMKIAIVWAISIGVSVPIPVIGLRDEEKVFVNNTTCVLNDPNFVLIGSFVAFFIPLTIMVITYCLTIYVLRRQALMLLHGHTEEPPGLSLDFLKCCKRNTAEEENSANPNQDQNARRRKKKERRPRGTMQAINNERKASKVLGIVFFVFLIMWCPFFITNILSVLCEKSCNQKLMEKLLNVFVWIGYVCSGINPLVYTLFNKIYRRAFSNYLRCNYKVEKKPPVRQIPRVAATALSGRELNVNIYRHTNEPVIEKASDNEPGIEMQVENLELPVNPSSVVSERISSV
Assay: Functional calcium mobilization (FLIPR) assay, 5-HT2C
Format: cell-based
Settings: CHO cells stably expressing human 5-HT2C receptor; agonist-stimulated Ca2+ flux
Method: (a) Cell Culture for the Human 5-HT2A, Human 5-HT2B, and Human 5-HT2C Receptors:
CHO cells stably expressing the human 5-HT2A, human 5-HT2B, and human 5-HT2C receptors were purchased from PerkinElmer (Waltham, Mass.). Cells were grown in advance DMEM/F12, 1% dialyzed fetal bovine serum, 2 mM L-glutamine, 100 units/mL penicillin, 1 mg/mL streptomycin, and 0.4 mg/ml Geneticin at 37° C. in 5% CO2 atmosphere.
(b) Calcium Mobilization Assays:
Cells were seeded in black clear-bottom 384-well plates at a density of 10,000 cells/well and incubated overnight at 37° C. in 5% CO2/95% atmosphere. After removing medium, cells were loaded with modified HBSS buffer (137.9 mM NaCl, 5.3 mM KCl, 5.5 mM glucose, 20 mM Hepes, 0.49 mM MgCl2, 1.26 mM CaCl2, 0.41 mM MgSO4, 0.33 mM Na2HPO4, and 0.44 mM KH2PO4) containing the FLIPR Calcium 4 dye (Molecular Devices, CA) and probenecid ([…]) and incubated at 37° C. for 60 min, according to the manufacturer's instructions. Compounds were diluted in HBSS buffer containing 6% DMSO as six folds. Final DMSO concentration in the assay was 1%. The dose-response of agonist-stimulated Ca^2+ flux was measured on a Fluorometric Imaging Plate Reader (FLIPR Tetra) (Molecular Devices, CA).
Data were analyzed by nonlinear least squares curve fitting using GraphPad Prism 5.0 software (GraphPad Software, CA). Agonist stimulation in FLIPR assay was fitted to sigmoidal dose response curves using the equation Y=Bottom+(Top-Bottom)/(1+10^((Log EC50−X)*Hill Slope)), where X is the logarithm of concentration of compounds. Y is the fluorescent response, EC50 is the concentration of compound producing 50% of maximum response. Maximum responses (Emax) of compounds were calculated based on % of stimulation relative to the response of α-methyl-5HT (100%). EC50's are representative of two or three separate experiments performed in triplicates.

| EC50 | Compound |
| --- | --- |
| < 1 nM | Clc1ccc(C2CC2)c2nc3c(cc12)CCNCC3 |
| < 5 nM | Fc1cc(C2CC2)c2nc3c(cc2c1F)CCNCC3 |
| < 15 nM | Cc1c2c(nc3c(C4CC4)ccc(Cl)c13)CCNCC2 |
| < 5 nM | Fc1cc(C2CC2)c2nc3c(cc2c1Cl)CCNCC3 |
| < 50 nM | Clc1ccc(OC2CCCCC2)c2cc3c(nc12)CCNCC3 |
| < 5 nM | Cc1c2c(nc3c(Cl)ccc(OC4CCCCC4)c13)CCNCC2 |
| < 5 nM | Fc1cc(F)c2cc3c(nc2c1C1CC1)CCNCC3 |
| < 5 nM | Cc1c2c(nc3c(C4CC4)c(F)cc(F)c13)CCNCC2 |
| < 10 nM | Cc1c2c(nc3c(OC4CCCCCC4)ccc(F)c13)CCNCC2 |
| < 20 nM | Fc1cccc(Oc2ccc(Cl)c3nc4c(cc23)CCNCC4)c1 |
| < 10 nM | Cc1c2c(nc3c(OC4CCCCC4)ccc(F)c13)CCNCC2 |

Source: patent publication US10131660B2, “Tetrahydro-azepinoquinolines as agonists of the 5-HT2C receptor” (Sunnylife Pharma, Inc., priority 2014, dated 2018)
